Tests used:
E. coli = E. coli capillary accumulation assay; type: cell-based, Escherichia coli
Procedure: FIGS. 3A and 3B: Results of E. coli capillary accumulation assays. The number of bacteria accumulated is plotted versus the concentration of the attractant (galactose or compounds 1-4, Scheme 1) calculated on a saccharide residue basis. (A): Results are shown for capillaries filled with buffer alone, compound 1, and compound 2 or (B): buffer alone, compound 3 and compound 4 at the indicated concentrations. The vertical line at 1 mM indicates the concentration of maximum chemotaxis for the monomeric compound 1. […] Results are the average of 3 to 6 experiments performed in duplicate and error bars represent a single standard deviation. Partial permeabilization was required to obtain chemotaxis towards 4, and was utilized for all experiments.
E. coli were subjected to concentration gradients of compounds 1-4 in capillary accumulation assays to determine the concentration at which the maximum chemotactic response is achieved and the number of bacteria that accumulate at this maximum.
Concentrations of maximum chemotaxis of 3 and 4 are 100- and 5000-fold lower, respectively, than free galactose (FIG. 3B). […]
E. coli from an overnight culture were grown in LB to OD550 0.4-0.6, washed twice with E. coli chemotaxis buffer, and then partially permeabilized. […] Data was analyzed using the Q and Students tests.

[1] = system: bacterial chemoreceptors of E. coli AW405 or RP 1078 (cheW); experiment: immunofluorescence microscopy of chemoreceptor organization; type: cell-based, Escherichia coli; conditions: E. coli cheW mutants, 5 mM, anti-Tsr labeling
Procedure: Fluorescence microscopy experiments were performed to visualize changes in chemotaxis receptor organization upon treatment with saccharide-carrying ligands. These experiments can determine directly whether or not multivalent ligands can influence chemoreceptor reorganization. It had been shown that wild-type E. coli localize chemoreceptors to their poles and that inactivation of the structural protein, CheW, results in a random distribution of chemoreceptors on the cell. The ability of ROMP-derived arrays to localize the chemoreceptors was examined using E. coli cheWmutants. Bacteria were treated with 1, 3, or 4, fixed, and labeled with an antibody to the bacterial chemoreceptors (anti-Tsr). […]
To confirm the ability of multivalent ligands to alter the organization of the chemoreceptors in the bacterial membrane E. coli were treated with compound 8, a galactose-bearing multivalent ligand having a fluorescent label (Scheme 1). When E. coli were treated with 8 or a fluorescein-labeled anti-Tsr antibody 14, the fluorescence patterns observed were similar. […]
E. coli AW405 or RP 1078 (cheW) were pretreated with buffer alone or with compounds 1, 3, 4, or 8 at 5 mM in a 10 μL total volume of chemotaxis buffer. […] Fluorescence microscopy was performed on a Zeiss Axioscope at 1000×using an oil immersion lens. […]

Compound: O=C(NCCOC1OC(CO)C(O)C(O)C1O)C1C[C@@H]2C=CC1C2 (stereo partly drawn) [Compound 1]
- chemoattractant activity in mutants (E. coli; ggbp (AW550 and AW543) or trg (AW701) E. coli mutants): not a chemoattractant
- concentration of maximum chemotaxis (E. coli; saccharide (galactose) residue basis, partially permeabilized E. coli, 30° C., 60 min): 1 mM
- effect on chemoreceptor distribution [1]: no effect on receptor distribution

Reference: patent US20040248801A1, “Methods and reagents for regulation of cellular responses in biological systems” (priority 2000, published 2004)
